# Publication PMC5433425 (PeerJ, 2017)
# Values joined by “and” are separate entries in the source; they are usually repeats but may differ in a detail not shown here. Identical values can stand only once. Like-named read-outs stand apart in the source and are kept apart here. Peptide text beside a SMILES is read from it. * marks the point of attachment. βNA = c1ccc2cc(N*)ccc2c1
# How the values were obtained:
# E. coli AG100 = assay: Checkerboard synergy assay (MIC of antibiotics/EtBr with efflux inhibitor); format: cell-based, Escherichia coli; details: Escherichia coli
# Procedure: The assays were performed in triplicate and the MIC value was given as result of at least two concordant values.
# [1] = tested on: E. coli K-12 AG100 (wild-type); assay: MIC, broth microdilution; format: cell-based; details: Escherichia coli
# E. coli AG100tet = assay: EtBr efflux by real-time fluorometry; details: 80 µM
smiles,measurement,setting,value
NC(N)=NCCC[C@H](NC(=O)[C@@H](N)Cc1ccccc1)C(=O)Nc1ccc2ccccc2c1 [PAβN] (H-Phe-Arg-βNA),MIC,"E. coli AG100; AG100, AG100, inhibitor 40 μM, read-out: MIC of OXA in presence of the efflux inhibitor",64 µg/mL
same,MIC,"E. coli AG100; AG100, AG100, inhibitor 80 μM, read-out: MIC of OXA in presence of the efflux inhibitor",64 µg/mL
same,MIC,"E. coli AG100; AG100, AG100, inhibitor 160 μM, read-out: MIC of OXA in presence of the efflux inhibitor",64 µg/mL
same,MIC,"E. coli AG100; AG100, read-out: MIC of EtBr in presence of the efflux inhibitor, AG100, inhibitor 40 μM",100 µg/mL
same,MIC,"E. coli AG100; AG100, read-out: MIC of EtBr in presence of the efflux inhibitor, AG100, inhibitor 80 μM",100 µg/mL
same,MIC,"E. coli AG100; AG100, read-out: MIC of EtBr in presence of the efflux inhibitor, AG100, inhibitor 160 μM",100 µg/mL
same,MIC,"E. coli AG100; AG100, read-out: MIC of OFX in presence of the efflux inhibitor, AG100, inhibitor 40 μM",0.06 µg/mL
same,MIC,"E. coli AG100; AG100, read-out: MIC of OFX in presence of the efflux inhibitor, AG100, inhibitor 80 μM",0.06 µg/mL
same,MIC,"E. coli AG100; AG100, read-out: MIC of OFX in presence of the efflux inhibitor, AG100, inhibitor 160 μM",0.06 µg/mL
same,MIC,"E. coli AG100; AG100, read-out: MIC of TET in presence of the efflux inhibitor, AG100, inhibitor 40 μM",2 µg/mL
same,MIC,"E. coli AG100; AG100, read-out: MIC of TET in presence of the efflux inhibitor, AG100, inhibitor 80 μM",1 µg/mL
same,MIC,"E. coli AG100; AG100, read-out: MIC of TET in presence of the efflux inhibitor, AG100, inhibitor 160 μM",0.06 µg/mL
same,MIC,[1],> 200 µg/mL and > 385 µM
same,"Fluorescence raw data, Channel Cycling A.530/585hp","E. coli AG100tet; cycle 1, + glucose",2.731
same,"Fluorescence raw data, Channel Cycling A.530/585hp","E. coli AG100tet; cycle 1, without glucose",3.207
same,"Fluorescence raw data, Channel Cycling A.530/585hp","E. coli AG100tet; cycle 2, + glucose",2.53
same,"Fluorescence raw data, Channel Cycling A.530/585hp","E. coli AG100tet; cycle 2, without glucose",3.035
same,"Fluorescence raw data, Channel Cycling A.530/585hp","E. coli AG100tet; cycle 3, + glucose",2.342
same,"Fluorescence raw data, Channel Cycling A.530/585hp","E. coli AG100tet; cycle 3, without glucose",2.872
same,"Fluorescence raw data, Channel Cycling A.530/585hp","E. coli AG100tet; cycle 4, without glucose",2.787
same,"Fluorescence raw data, Channel Cycling A.530/585hp","E. coli AG100tet; cycle 5, without glucose",2.697
same,"Fluorescence raw data, Channel Cycling A.530/585hp","E. coli AG100tet; cycle 6, without glucose",2.616
same,"Fluorescence raw data, Channel Cycling A.530/585hp","E. coli AG100tet; cycle 7, without glucose",2.625
same,"Fluorescence raw data, Channel Cycling A.530/585hp","E. coli AG100tet; cycle 8, without glucose",2.608
same,"Fluorescence raw data, Channel Cycling A.530/585hp","E. coli AG100tet; cycle 9, + glucose",1.745
same,"Fluorescence raw data, Channel Cycling A.530/585hp","E. coli AG100tet; cycle 9, without glucose",2.567
same,"Fluorescence raw data, Channel Cycling A.530/585hp","E. coli AG100tet; cycle 10, + glucose",1.7497
same,"Fluorescence raw data, Channel Cycling A.530/585hp","E. coli AG100tet; cycle 10, without glucose",2.517
same,"Fluorescence raw data, Channel Cycling A.530/585hp","E. coli AG100tet; cycle 11, + glucose",1.716
same,"Fluorescence raw data, Channel Cycling A.530/585hp","E. coli AG100tet; cycle 11, without glucose",2.463
same,"Fluorescence raw data, Channel Cycling A.530/585hp","E. coli AG100tet; cycle 12, + glucose",1.744
same,"Fluorescence raw data, Channel Cycling A.530/585hp","E. coli AG100tet; cycle 12, without glucose",2.462
same,"Fluorescence raw data, Channel Cycling A.530/585hp","E. coli AG100tet; cycle 13, + glucose",1.706
same,"Fluorescence raw data, Channel Cycling A.530/585hp","E. coli AG100tet; cycle 13, without glucose",2.458
same,"Fluorescence raw data, Channel Cycling A.530/585hp","E. coli AG100tet; cycle 14, + glucose",1.697
same,"Fluorescence raw data, Channel Cycling A.530/585hp","E. coli AG100tet; cycle 14, without glucose",2.431
same,"Fluorescence raw data, Channel Cycling A.530/585hp","E. coli AG100tet; cycle 15, + glucose",1.701
same,"Fluorescence raw data, Channel Cycling A.530/585hp","E. coli AG100tet; cycle 15, without glucose",2.375
same,"Fluorescence raw data, Channel Cycling A.530/585hp","E. coli AG100tet; cycle 16, + glucose",1.676
same,"Fluorescence raw data, Channel Cycling A.530/585hp","E. coli AG100tet; cycle 16, without glucose",2.373
same,"Fluorescence raw data, Channel Cycling A.530/585hp","E. coli AG100tet; cycle 17, + glucose",1.744
same,"Fluorescence raw data, Channel Cycling A.530/585hp","E. coli AG100tet; cycle 17, without glucose",2.339
same,"Fluorescence raw data, Channel Cycling A.530/585hp","E. coli AG100tet; cycle 18, + glucose",1.635
same,"Fluorescence raw data, Channel Cycling A.530/585hp","E. coli AG100tet; cycle 18, without glucose",2.379
same,"Fluorescence raw data, Channel Cycling A.530/585hp","E. coli AG100tet; cycle 19, + glucose",1.694
same,"Fluorescence raw data, Channel Cycling A.530/585hp","E. coli AG100tet; cycle 19, without glucose",2.342
same,"Fluorescence raw data, Channel Cycling A.530/585hp","E. coli AG100tet; cycle 20, + glucose",1.701
same,"Fluorescence raw data, Channel Cycling A.530/585hp","E. coli AG100tet; cycle 20, without glucose",2.323
same,"Fluorescence raw data, Channel Cycling A.530/585hp","E. coli AG100tet; cycle 21, + glucose",1.621
same,"Fluorescence raw data, Channel Cycling A.530/585hp","E. coli AG100tet; cycle 21, without glucose",2.26
same,"Fluorescence raw data, Channel Cycling A.530/585hp","E. coli AG100tet; cycle 22, + glucose",1.645
same,"Fluorescence raw data, Channel Cycling A.530/585hp","E. coli AG100tet; cycle 22, without glucose",2.252
same,"Fluorescence raw data, Channel Cycling A.530/585hp","E. coli AG100tet; cycle 23, + glucose",1.597
same,"Fluorescence raw data, Channel Cycling A.530/585hp","E. coli AG100tet; cycle 23, without glucose",2.314
same,"Fluorescence raw data, Channel Cycling A.530/585hp","E. coli AG100tet; cycle 24, + glucose",1.6798
same,"Fluorescence raw data, Channel Cycling A.530/585hp","E. coli AG100tet; cycle 24, without glucose",2.2447
same,"Fluorescence raw data, Channel Cycling A.530/585hp","E. coli AG100tet; cycle 25, + glucose",1.636
same,"Fluorescence raw data, Channel Cycling A.530/585hp","E. coli AG100tet; cycle 25, without glucose",2.272
same,"Fluorescence raw data, Channel Cycling A.530/585hp","E. coli AG100tet; cycle 26, + glucose",1.633
same,"Fluorescence raw data, Channel Cycling A.530/585hp","E. coli AG100tet; cycle 26, without glucose",2.288
same,"Fluorescence raw data, Channel Cycling A.530/585hp","E. coli AG100tet; cycle 27, + glucose",1.617
same,"Fluorescence raw data, Channel Cycling A.530/585hp","E. coli AG100tet; cycle 27, without glucose",2.2961
same,"Fluorescence raw data, Channel Cycling A.530/585hp","E. coli AG100tet; cycle 28, + glucose",1.668
same,"Fluorescence raw data, Channel Cycling A.530/585hp","E. coli AG100tet; cycle 28, without glucose",2.2127
same,"Fluorescence raw data, Channel Cycling A.530/585hp","E. coli AG100tet; cycle 29, + glucose",1.644
same,"Fluorescence raw data, Channel Cycling A.530/585hp","E. coli AG100tet; cycle 29, without glucose",2.236
same,"Fluorescence raw data, Channel Cycling A.530/585hp","E. coli AG100tet; cycle 30, + glucose",1.668
same,"Fluorescence raw data, Channel Cycling A.530/585hp","E. coli AG100tet; cycle 30, without glucose",2.282
same,"Fluorescence raw data, Channel Cycling A.530/585hp","E. coli AG100tet; cycle 31, + glucose",1.6751
same,"Fluorescence raw data, Channel Cycling A.530/585hp","E. coli AG100tet; cycle 31, without glucose",2.164
same,"Fluorescence raw data, Channel Cycling A.530/585hp","E. coli AG100tet; cycle 32, + glucose",1.6187
same,"Fluorescence raw data, Channel Cycling A.530/585hp","E. coli AG100tet; cycle 32, without glucose",2.166
same,"Fluorescence raw data, Channel Cycling A.530/585hp","E. coli AG100tet; cycle 33, + glucose",1.65
same,"Fluorescence raw data, Channel Cycling A.530/585hp","E. coli AG100tet; cycle 33, without glucose",2.197
